{
  "source": "paper PMC5218480",
  "about": "(PLoS ONE, 2017)",
  "system": "MV-4-11 cells",
  "assay": "Gene expression microarray analysis (Affymetrix PrimeView) and GSEA",
  "assay_type": "cell-based, human",
  "design": "RFU PODN (11730768_x_at) / Fold change /veh PODN (11730768_x_at) / RFU LINC00158 (11744669_a_at) / Fold change /veh LINC00158 (11744669_a_at) / RFU DUSP10 (11751237_a_at) / Fold change /veh DUSP10 (11751237_a_at) / RFU ID3 (11757404_x_at) / Fold change /veh ID3 (11757404_x_at) / RFU PLEKHG5 (11737974_s_at) / Fold change /veh PLEKHG5 (11737974_s_at) / RFU LRRC4B (11730491_at) / Fold change /veh LRRC4B (11730491_at) / RFU GIMAP4 (11747438_a_at) / Fold change /veh GIMAP4 (11747438_a_at) / RFU KRT8 (11758183_x_at) / Fold change /veh KRT8 (11758183_x_at) / RFU CNN1 (11734310_a_at) / Fold change /veh CNN1 (11734310_a_at) / RFU VPS37D (11726825_at) / Fold change /veh VPS37D (11726825_at) / RFU C10orf10 (11716522_x_at) / Fold change /veh C10orf10 (11716522_x_at) / RFU KIR2DL2 /// KIR2DL4 /// KIR2DL5A /// KIR2DL5B /// KIR2DS1 /// KIR2DS2 /// KIR2DS3 /// KIR2DS4 /// KIR3DL3 /// KIR3DL3 /// KIR3DS1 (11738374_at) / Fold change /veh KIR2DL2 /// KIR2DL4 /// KIR2DL5A /// KIR2DL5B /// KIR2DS1 /// KIR2DS2 /// KIR2DS3 /// KIR2DS4 /// KIR3DL3 /// KIR3DL3 /// KIR3DS1 (11738374_at) / RFU C1QL1 (11718748_at) / Fold change /veh C1QL1 (11718748_at) / RFU TMPRSS4 (11747572_a_at) / Fold change /veh TMPRSS4 (11747572_a_at) / RFU HAMP (11756126_x_at) / Fold change /veh HAMP (11756126_x_at) / RFU RNFT2 (11725882_a_at) / Fold change /veh RNFT2 (11725882_a_at) / RFU NR4A2 (11747474_a_at) / Fold change /veh NR4A2 (11747474_a_at) / RFU ABCC12 (11746883_a_at) / Fold change /veh ABCC12 (11746883_a_at) / RFU TMEM136 (11760407_x_at) / Fold change /veh TMEM136 (11760407_x_at) / RFU CLDN22 /// WWC2 (11732394_at) / Fold change /veh CLDN22 /// WWC2 (11732394_at) / RFU HLA-DPB1 (11760878_x_at) / Fold change /veh HLA-DPB1 (11760878_x_at) / RFU SPINT1 (11716480_a_at) / Fold change /veh SPINT1 (11716480_a_at) / RFU GAP43 (11754022_s_at) / Fold change /veh GAP43 (11754022_s_at) / RFU A4GNT (11735810_at) / Fold change /veh A4GNT (11735810_at) / RFU PRB3 (11715151_x_at) / Fold change /veh PRB3 (11715151_x_at) / RFU TUBB4B (11761932_at) / Fold change /veh TUBB4B (11761932_at) / RFU CAPN14 (11732068_a_at) / Fold change /veh CAPN14 (11732068_a_at) / RFU TMCC2 (11721928_a_at) / Fold change /veh TMCC2 (11721928_a_at) / RFU IRGQ (11745062_a_at) / Fold change /veh IRGQ (11745062_a_at) / RFU FAM174B (11720279_a_at) / Fold change /veh FAM174B (11720279_a_at) / RFU TMPRSS4 (11748680_a_at) / Fold change /veh TMPRSS4 (11748680_a_at) / RFU FAM212B (11763350_a_at) / Fold change /veh FAM212B (11763350_a_at) / RFU PLEKHG5 (11743358_a_at) / Fold change /veh PLEKHG5 (11743358_a_at) / RFU ZSCAN30 (11745921_a_at) / Fold change /veh ZSCAN30 (11745921_a_at) / RFU CMKLR1 (11741424_a_at) / Fold change /veh CMKLR1 (11741424_a_at) / RFU LOC101060620 /// MAPK8IP1 (11723275_at) / Fold change /veh LOC101060620 /// MAPK8IP1 (11723275_at) / RFU SPTSSB (11747773_x_at) / Fold change /veh SPTSSB (11747773_x_at) / RFU PRSS12 (11739890_at) / Fold change /veh PRSS12 (11739890_at) / RFU BIN1 (11741810_x_at) / Fold change /veh BIN1 (11741810_x_at) / RFU WNT11 (11732464_a_at) / Fold change /veh WNT11 (11732464_a_at) / RFU C10orf10 (11716521_a_at) / Fold change /veh C10orf10 (11716521_a_at) / RFU C5orf56 (11738089_at) / Fold change /veh C5orf56 (11738089_at) / RFU CYB561 (11721691_x_at) / Fold change /veh CYB561 (11721691_x_at) / RFU ANKRD19P (11752326_a_at) / Fold change /veh ANKRD19P (11752326_a_at) / RFU OR2T12 /// OR2T33 /// OR2T8 (11738714_s_at) / Fold change /veh OR2T12 /// OR2T33 /// OR2T8 (11738714_s_at) / RFU VCAN (11748164_a_at) / Fold change /veh VCAN (11748164_a_at) / RFU JSRP1 (11732532_at) / Fold change /veh JSRP1 (11732532_at) / RFU KRTAP10-11 (11738290_x_at) / Fold change /veh KRTAP10-11 (11738290_x_at) / RFU MYO3A (11730013_a_at) / Fold change /veh MYO3A (11730013_a_at) / RFU EBF3 (11725865_a_at) / Fold change /veh EBF3 (11725865_a_at) / RFU CAMK2N1 (11719241_x_at) / Fold change /veh CAMK2N1 (11719241_x_at) / RFU C5orf56 (11738088_a_at) / Fold change /veh C5orf56 (11738088_a_at) / RFU OLFML3 (11715873_a_at) / Fold change /veh OLFML3 (11715873_a_at) / RFU LOC100653217 /// NTM (11731650_a_at) / Fold change /veh LOC100653217 /// NTM (11731650_a_at) / RFU MAPK11 (11762145_a_at) / Fold change /veh MAPK11 (11762145_a_at) / RFU FIZ1 (11724087_x_at) / Fold change /veh FIZ1 (11724087_x_at) / RFU OASL (11726364_x_at) / Fold change /veh OASL (11726364_x_at) / RFU SOX15 (11748057_x_at) / Fold change /veh SOX15 (11748057_x_at) / RFU CD79A (11719716_a_at) / Fold change /veh CD79A (11719716_a_at) / RFU HIST1H1D (11736915_at) / Fold change /veh HIST1H1D (11736915_at) / RFU CASKIN2 (11723855_a_at) / Fold change /veh CASKIN2 (11723855_a_at) / RFU LOC730098 (11760151_x_at) / Fold change /veh LOC730098 (11760151_x_at) / RFU OR4N2 (11742367_at) / Fold change /veh OR4N2 (11742367_at) / RFU PRRT2 (11749266_a_at) / Fold change /veh PRRT2 (11749266_a_at) / RFU SNX32 (11753110_a_at) / Fold change /veh SNX32 (11753110_a_at) / RFU CDHR5 (11726645_a_at) / Fold change /veh CDHR5 (11726645_a_at) / RFU RCAN1 (11760418_a_at) / Fold change /veh RCAN1 (11760418_a_at) / RFU FAM167A (11723789_a_at) / Fold change /veh FAM167A (11723789_a_at) / RFU FAM26E (11764081_at) / Fold change /veh FAM26E (11764081_at) / RFU ISYNA1 (11749810_s_at) / Fold change /veh ISYNA1 (11749810_s_at) / RFU ACY1 (11761880_at) / Fold change /veh ACY1 (11761880_at) / RFU 11764098_at / Fold change /veh 11764098_at / RFU SAMD14 (11745864_x_at) / Fold change /veh SAMD14 (11745864_x_at) / RFU NPB (11741838_a_at) / Fold change /veh NPB (11741838_a_at) / RFU TMPRSS6 (11731388_a_at) / Fold change /veh TMPRSS6 (11731388_a_at) / RFU KRTAP10-2 (11738614_at) / Fold change /veh KRTAP10-2 (11738614_at) / RFU ARHGAP8 /// PRR5-ARHGAP8 (11727945_x_at) / Fold change /veh ARHGAP8 /// PRR5-ARHGAP8 (11727945_x_at) / RFU KRTAP5-7 /// NADSYN1 (11734609_at) / Fold change /veh KRTAP5-7 /// NADSYN1 (11734609_at) / RFU RASL12 (11751679_a_at) / Fold change /veh RASL12 (11751679_a_at) / RFU CDKN2B (11736163_a_at) / Fold change /veh CDKN2B (11736163_a_at) / RFU PRF1 (11729649_at) / Fold change /veh PRF1 (11729649_at) / RFU, ZNF638 /// ZNF638-IT1 / Fold change vs veh, ZNF638 /// ZNF638-IT1 / RFU, PANK3 / Fold change vs veh, PANK3 / RFU, SH3YL1 / Fold change vs veh, SH3YL1 / RFU, ZEB2 / Fold change vs veh, ZEB2 / RFU, NRIP1 / Fold change vs veh, NRIP1 / RFU, PTTG1IP / Fold change vs veh, PTTG1IP / RFU, CAPN2 / Fold change vs veh, CAPN2 / RFU, MED14 / Fold change vs veh, MED14 / RFU, SNORA58 / Fold change vs veh, SNORA58 / RFU, C1orf63 / Fold change vs veh, C1orf63 / RFU, LRRFIP1 / Fold change vs veh, LRRFIP1 / RFU, NDUFAF7 / Fold change vs veh, NDUFAF7 / RFU, SLC12A2 / Fold change vs veh, SLC12A2 / RFU, IBTK / Fold change vs veh, IBTK / RFU, ESF1 / Fold change vs veh, ESF1 / Fold change vs veh, TMEM50B / RFU, TAOK1 / Fold change vs veh, TAOK1 / RFU, ACBD3 / Fold change vs veh, ACBD3 / RFU, TMA16 / Fold change vs veh, TMA16 / RFU, RWDD3 / Fold change vs veh, RWDD3 / RFU, BCAT1 / Fold change vs veh, BCAT1 / RFU, EDEM3 / Fold change vs veh, EDEM3 / RFU, TMEM33 / Fold change vs veh, TMEM33 / RFU, WDR75 / Fold change vs veh, WDR75 / RFU, AHCTF1 / Fold change vs veh, AHCTF1 / RFU, TFRC / Fold change vs veh, TFRC / RFU, ZDHHC17 / Fold change vs veh, ZDHHC17 / RFU, NOM1 / Fold change vs veh, NOM1 / RFU, ARL8B / Fold change vs veh, ARL8B / RFU, ZBTB11 / Fold change vs veh, ZBTB11 / RFU, TAMM41 / Fold change vs veh, TAMM41 / RFU, KIAA1704 /// LOC100996395 / Fold change vs veh, KIAA1704 /// LOC100996395 / RFU, ING1 / Fold change vs veh, ING1 / RFU, TRMT61B / Fold change vs veh, TRMT61B / RFU, FUBP3 / Fold change vs veh, FUBP3 / RFU, TP53 / Fold change vs veh, TP53 / RFU, TNKS2 / Fold change vs veh, TNKS2 / RFU, ZFP14 / Fold change vs veh, ZFP14 / RFU, ACTR2 / Fold change vs veh, ACTR2 / RFU, PPP3R1 / Fold change vs veh, PPP3R1 / RFU, PIK3R1 / Fold change vs veh, PIK3R1 / RFU, HNRNPA1 / Fold change vs veh, HNRNPA1 / RFU, RNF170 / Fold change vs veh, RNF170 / RFU, ZNF28 / Fold change vs veh, ZNF28 / RFU, RNGTT / Fold change vs veh, RNGTT / RFU, OGT / Fold change vs veh, OGT / RFU, BRD1 / Fold change vs veh, BRD1 / RFU, MARS / Fold change vs veh, MARS / RFU, ZNF655 / Fold change vs veh, ZNF655 / RFU, FAHD1 / Fold change vs veh, FAHD1 / RFU, BDP1 / Fold change vs veh, BDP1 / RFU, LRRCC1 / Fold change vs veh, LRRCC1 / RFU, ARID1A / Fold change vs veh, ARID1A / RFU, ZNF146 / Fold change vs veh, ZNF146 / RFU, ZNF330 / Fold change vs veh, ZNF330 / RFU, GPN3 / Fold change vs veh, GPN3 / RFU, C9orf123 / Fold change vs veh, C9orf123 / RFU, N4BP2L2 / Fold change vs veh, N4BP2L2 / RFU, ARFIP1 / Fold change vs veh, ARFIP1 / RFU, FAM179B / Fold change vs veh, FAM179B / RFU, BCL10 / Fold change vs veh, BCL10 / RFU, UHRF1BP1L / Fold change vs veh, UHRF1BP1L / RFU, BET1 / Fold change vs veh, BET1 / RFU, CNOT2 / Fold change vs veh, CNOT2 / RFU, ZNF268 / Fold change vs veh, ZNF268 / Fold change vs veh, ZNF507 / RFU, DGCR2 / Fold change vs veh, DGCR2 / RFU, WDSUB1 / Fold change vs veh, WDSUB1 / Fold change vs veh, HSP90B1 /// MIR3652 / RFU, ADSS / Fold change vs veh, ADSS / RFU, GK / Fold change vs veh, GK / RFU, ZNF148 / Fold change vs veh, ZNF148 / RFU, TAF9 / Fold change vs veh, TAF9 / RFU, SLC1A5 / Fold change vs veh, SLC1A5 / RFU, SLMO2 / Fold change vs veh, SLMO2 / RFU, ABCC4 / Fold change vs veh, ABCC4 / RFU, LOC101060439 /// RAP1B / Fold change vs veh, LOC101060439 /// RAP1B / RFU, RFX7 / Fold change vs veh, RFX7 / RFU, GTPBP10 / Fold change vs veh, GTPBP10 / RFU, CNEP1R1 / Fold change vs veh, CNEP1R1 / RFU, BIVM-ERCC5 /// ERCC5 / Fold change vs veh, BIVM-ERCC5 /// ERCC5 / RFU, ILF3 / Fold change vs veh, ILF3 / RFU 11762660_at / Fold change /veh 11762660_at / RFU VCAN (11757783_s_at) / Fold change /veh VCAN (11757783_s_at) / RFU DDX43 (11728927_at) / Fold change /veh DDX43 (11728927_at) / RFU KRT8 (11758188_x_at) / Fold change /veh KRT8 (11758188_x_at) / RFU NKD1 (11759106_at) / Fold change /veh NKD1 (11759106_at) / RFU SRD5A1 (11742802_a_at) / Fold change /veh SRD5A1 (11742802_a_at) / RFU TPSAB1 /// TPSB2 (11721975_s_at) / Fold change /veh TPSAB1 /// TPSB2 (11721975_s_at) / RFU GSTM3 (11746129_a_at) / Fold change /veh GSTM3 (11746129_a_at) / RFU IL23R (11737362_x_at) / Fold change /veh IL23R (11737362_x_at) / RFU TMEM51 (11727254_a_at) / Fold change /veh TMEM51 (11727254_a_at) / RFU PIWIL2 (11732686_x_at) / Fold change /veh PIWIL2 (11732686_x_at) / RFU ORM1 (11744905_x_at) / Fold change /veh ORM1 (11744905_x_at) / RFU CCDC152 (11743942_at) / Fold change /veh CCDC152 (11743942_at) / RFU ECM1 (11717891_a_at) / Fold change /veh ECM1 (11717891_a_at) / RFU IL23R (11748794_a_at) / Fold change /veh IL23R (11748794_a_at) / RFU TNFAIP8L3 (11732012_x_at) / Fold change /veh TNFAIP8L3 (11732012_x_at) / RFU MBOAT4 (11741988_at) / Fold change /veh MBOAT4 (11741988_at) / RFU 11764193_at / Fold change /veh 11764193_at / RFU TMEM53 (11763286_at) / Fold change /veh TMEM53 (11763286_at) / RFU MAGEB2 (11727129_at) / Fold change /veh MAGEB2 (11727129_at) / RFU TMEM200A (11744735_a_at) / Fold change /veh TMEM200A (11744735_a_at) / RFU CCDC152 (11751479_a_at) / Fold change /veh CCDC152 (11751479_a_at) / RFU FAM211A (11726209_a_at) / Fold change /veh FAM211A (11726209_a_at) / RFU RGS16 (11746705_a_at) / Fold change /veh RGS16 (11746705_a_at) / RFU VCAN (11755009_s_at) / Fold change /veh VCAN (11755009_s_at) / RFU RHOB (11743442_s_at) / Fold change /veh RHOB (11743442_s_at) / RFU RGS16 (11720943_a_at) / Fold change /veh RGS16 (11720943_a_at) / RFU RGS16 (11720944_at) / Fold change /veh RGS16 (11720944_at) / RFU, VPS4B / Fold change vs veh, VPS4B / RFU, CREB1 / Fold change vs veh, CREB1 / RFU, DNAJC13 / Fold change vs veh, DNAJC13 / RFU, GNAQ / Fold change vs veh, GNAQ / RFU, CDK5R1 / Fold change vs veh, CDK5R1 / RFU, ZRANB3 / Fold change vs veh, ZRANB3 / RFU, CUL4A / Fold change vs veh, CUL4A / RFU, CCNY / Fold change vs veh, CCNY / RFU, UFL1 / Fold change vs veh, UFL1 / RFU, COG3 / Fold change vs veh, COG3 / RFU, DIAPH2 / Fold change vs veh, DIAPH2 / RFU, SKA2 / Fold change vs veh, SKA2 / RFU, AFF3 / Fold change vs veh, AFF3 / RFU, LMF1 / Fold change vs veh, LMF1 / RFU, IPO11 / Fold change vs veh, IPO11 / RFU, DFFB / Fold change vs veh, DFFB / RFU, FOXP1 / Fold change vs veh, FOXP1 / RFU, CARD8 / Fold change vs veh, CARD8 / RFU, STRN3 / Fold change vs veh, STRN3 / RFU, ADK / Fold change vs veh, ADK / RFU, RASSF2 / Fold change vs veh, RASSF2 / RFU, WIPF1 / Fold change vs veh, WIPF1 / RFU, LARP1B / Fold change vs veh, LARP1B / RFU, RASA1 / Fold change vs veh, RASA1 / RFU, RB1 / Fold change vs veh, RB1 / RFU, PPFIA1 / Fold change vs veh, PPFIA1 / RFU, MAT2A / Fold change vs veh, MAT2A / RFU, CCT5 / Fold change vs veh, CCT5 / RFU, WDR92 / Fold change vs veh, WDR92 / RFU, CUX1 / Fold change vs veh, CUX1 / RFU, TTC7A / Fold change vs veh, TTC7A / RFU, TMEM135 / Fold change vs veh, TMEM135 / RFU, DEPTOR / Fold change vs veh, DEPTOR / RFU, CPM / Fold change vs veh, CPM / RFU, DNAJB6 / Fold change vs veh, DNAJB6 / RFU, CACNA2D3 / Fold change vs veh, CACNA2D3 / RFU, DTX4 / Fold change vs veh, DTX4 / RFU, TFCP2 / Fold change vs veh, TFCP2 / RFU, GMCL1 /// GMCL1P1 / Fold change vs veh, GMCL1 /// GMCL1P1 / RFU, AEBP2 / Fold change vs veh, AEBP2 / RFU, SNHG1 /// SNORD22 /// SNORD25 /// SNORD26 /// SNORD27 /// SNORD28 /// SNORD29 /// SNORD31 / Fold change vs veh, SNHG1 /// SNORD22 /// SNORD25 /// SNORD26 /// SNORD27 /// SNORD28 /// SNORD29 /// SNORD31 / Fold change (Aza/veh), C12orf56 (ProbeSet 11735607_a_at) / Fold change (ACY-1035/veh), C12orf56 (ProbeSet 11735607_a_at) / Fold change (Aza/veh), FGFR1OP (ProbeSet 11751329_s_at) / Fold change (ACY-1035/veh), FGFR1OP (ProbeSet 11751329_s_at) / Fold change (Aza/veh), VPS36 (ProbeSet 11739960_a_at) / Fold change (ACY-1035/veh), VPS36 (ProbeSet 11739960_a_at) / RFU SYPL1 (11715823_x_at) / Fold change /veh SYPL1 (11715823_x_at) / RFU IGFBP7 (11715501_s_at) / Fold change /veh IGFBP7 (11715501_s_at) / RFU REEP3 (11722064_at) / Fold change /veh REEP3 (11722064_at) / RFU IGLL1 (11728026_x_at) / Fold change /veh IGLL1 (11728026_x_at): dose or concentration left out as unconfirmed",
  "details": "MV-4-11 cells, 48 hours",
  "data": [
    {"compound": "Nc1ccc(-c2cccs2)cc1NC(=O)c1ccc2c(c1)cc(C1CC1)n2CCN1CCOCC1", "note": "[ACY-1035]", "values": [
      {"measurement": "Fold change /veh LINC00158 (11744669_a_at)", "value": 1.11}
    ]}
  ]
}
